Measured values as given in ChEMBL document CHEMBL3046912, “Effectiveness of 1,3-dichloropropene as an alternative to methyl bromide in rotations of tomato (Solanum lycopersicum) and cucumber (Cucumis sativus) in China” (2012).
Calls of active or inactive are those of the source. The rule behind the calls is not given here.

Key:
[1] = tested on: Arenaria serpyllifolia; assay: Herbicidal activity against Arenaria serpyllifolia in tomato plants fields exposed to 400 kg/ha compound fumigation treatment assessed as hand weeding time per plot relative to untreated control; format: functional
[2] = tested on: Digitaria sanguinalis; assay: Herbicidal activity against Digitaria sanguinalis (hairy crabgrass) in tomato plants fields exposed to 400 kg/ha compound fumigation treatment assessed as hand weeding time per plot (reference value: 243.3 hr/ha); format: functional
[3] = tested on: Digitaria sanguinalis; assay: Herbicidal activity against Digitaria sanguinalis (hairy crabgrass) in cucumber plants fields exposed to 400 kg/ha compound fumigation treatment assessed as hand weeding time per plot relative to untreated control; format: functional
[4] = tested on: Capsella bursa-pastoris; assay: Herbicidal activity against Capsella bursa-pastoris in tomato plants fields exposed to 400 kg/ha compound fumigation treatment assessed as hand weeding time per plot relative to untreated control; format: functional
[5] = tested on: Solanum lycopersicum; assay: Increase in crop yield in Cucumis sativus (cucumber) plants exposed to 400 kg/ha compound fumigation treatment assessed as large fruit yield (reference value: 19.5 ton/ha); format: functional
[6] = tested on: Botrytis cinerea; assay: Fungicidal activity against Botryotinia fuckeliana-induced withering in tomato plants at 400 kg/ha measured 20 to 60 days post compound treatment; format: functional, organism-based
[7] = tested on: Meloidogyne incognita; assay: Nematicidal activity against Meloidogyne incognita (root-knot nematode) in tomato growing fields exposed to 400 kg/ha compound fumigation treatment assessed as root galling index measured 20 days after compound treatment (reference value: 8.51 root galling index); format: functional
[8] = tested on: Solanum lycopersicum; assay: Increase in crop yield in Solanum lycopersicum (tomato) plants exposed to 400 kg/ha compound fumigation treatment assessed as marketable yield fruit yield (reference value: 51.3 ton/ha); format: functional
[9] = tested on: Arenaria serpyllifolia; assay: Herbicidal activity against Arenaria serpyllifolia in cucumber plants fields exposed to 400 kg/ha compound fumigation treatment assessed as hand weeding time per plot relative to untreated control; format: functional
[10] = tested on: Arenaria serpyllifolia; assay: Herbicidal activity against Arenaria serpyllifolia in cucumber plants fields exposed to 400 kg/ha compound fumigation treatment assessed as hand weeding time per plot (reference value: 258.3 hr/ha); format: functional
[11] = tested on: Solanum lycopersicum; assay: Increase in crop yield in Cucumis sativus (cucumber) plants exposed to 400 kg/ha compound fumigation treatment assessed as medium fruit yield (reference value: 38.6 ton/ha); format: functional
[12] = tested on: Solanum lycopersicum; assay: Increase in plant height of Solanum lycopersicum (tomato) exposed to 400 kg/ha compound fumigation treatment measured 50 days after compound treatment (reference value: 86.2 cm); format: functional
[13] = tested on: Solanum lycopersicum; assay: Increase in crop yield in Cucumis sativus (cucumber) plants exposed to 400 kg/ha compound fumigation treatment assessed as marketable yield fruit yield (reference value: 65.3 ton/ha); format: functional
[14] = tested on: Cucumis sativus; assay: Increase in plant height of Cucumis sativus (cucumber) exposed to 400 kg/ha compound fumigation treatment measured 50 days after compound treatment (reference value: 103.2 cm); format: functional
[15] = tested on: Arenaria serpyllifolia; assay: Herbicidal activity against Arenaria serpyllifolia in tomato plants fields exposed to 400 kg/ha compound fumigation treatment assessed as hand weeding time per plot (reference value: 243.3 hr/ha); format: functional
[16] = tested on: Capsella bursa-pastoris; assay: Herbicidal activity against Capsella bursa-pastoris in cucumber plants fields exposed to 400 kg/ha compound fumigation treatment assessed as hand weeding time per plot relative to untreated control; format: functional
[17] = tested on: Solanum lycopersicum; assay: Increase in plant height of Solanum lycopersicum (tomato) exposed to 400 kg/ha compound fumigation treatment measured 30 days after compound treatment (reference value: 28.4 cm); format: functional
[18] = tested on: Phytophthora melonis; assay: Fungicidal activity against Phytophthora melonis-induced blight disease in cucumber plants at 400 kg/ha measured 20 to 60 days post compound treatment; format: functional, organism-based
[19] = tested on: Capsella bursa-pastoris; assay: Herbicidal activity against Capsella bursa-pastoris in tomato plants fields exposed to 400 kg/ha compound fumigation treatment assessed as hand weeding time per plot (reference value: 243.3 hr/ha); format: functional
[20] = tested on: Solanum lycopersicum; assay: Increase in crop yield in Solanum lycopersicum (tomato) plants exposed to 400 kg/ha compound fumigation treatment assessed as medium fruit yield (reference value: 32.3 ton/ha); format: functional
[21] = tested on: Solanum lycopersicum; assay: Increase in crop yield in Solanum lycopersicum (tomato) plants exposed to 400 kg/ha compound fumigation treatment assessed as extra-large fruit yield (reference value: 3.8 ton/ha); format: functional
[22] = tested on: Cucumis sativus; assay: Increase in plant height of Cucumis sativus (cucumber) exposed to 400 kg/ha compound fumigation treatment measured 30 days after compound treatment (reference value: 85.6 cm); format: functional
[23] = tested on: Meloidogyne incognita; assay: Nematicidal activity against Meloidogyne incognita (root-knot nematode) in cucumber growing fields exposed to 400 kg/ha compound fumigation treatment assessed as root galling index measured 20 days after compound treatment (reference value: 8.72 root galling index); format: functional
[24] = tested on: Digitaria sanguinalis; assay: Herbicidal activity against Digitaria sanguinalis (hairy crabgrass) in cucumber plants fields exposed to 400 kg/ha compound fumigation treatment assessed as hand weeding time per plot (reference value: 258.3 hr/ha); format: functional
[25] = tested on: Solanum lycopersicum; assay: Increase in crop yield in Cucumis sativus (cucumber) plants exposed to 400 kg/ha compound fumigation treatment assessed as extra-large fruit yield (reference value: 7.2 ton/ha); format: functional
[26] = tested on: Capsella bursa-pastoris; assay: Herbicidal activity against Capsella bursa-pastoris in cucumber plants fields exposed to 400 kg/ha compound fumigation treatment assessed as hand weeding time per plot (reference value: 258.3 hr/ha); format: functional
[27] = tested on: Solanum lycopersicum; assay: Increase in crop yield in Solanum lycopersicum (tomato) plants exposed to 400 kg/ha compound fumigation treatment assessed as large fruit yield (reference value: 15.2 ton/ha); format: functional
[28] = tested on: Digitaria sanguinalis; assay: Herbicidal activity against Digitaria sanguinalis (hairy crabgrass) in tomato plants fields exposed to 400 kg/ha compound fumigation treatment assessed as hand weeding time per plot relative to untreated control; format: functional

SMILES: CBr [BROMOMETHANE]
- Activity [1]: 45%
- Time [2]: 35.2 hr/ha
- Activity [3]: 45%
- Activity [4]: 45%
- Crop_yield [5]: 32.3 tons/ha
- Activity [6]: Active
- Root_galling_index [7]: 3.54
- Crop_yield [8]: 76.6 tons/ha
- Activity [9]: 45%
- Time [10]: 41.9 hr/ha
- Crop_yield [11]: 55.3 tons/ha
- Activity [12]: 118.7 cm
- Crop_yield [13]: 101.9 tons/ha
- Activity [14]: 132.6 cm
- Time [15]: 35.2 hr/ha
- Activity [16]: 45%
- Activity [17]: 43.5 cm
- Activity [18]: Active
- Time [19]: 35.2 hr/ha
- Crop_yield [20]: 46.6 tons/ha
- Crop_yield [21]: 8.3 tons/ha
- Activity [22]: 108.6 cm
- Root_galling_index [23]: 3.24
- Time [24]: 41.9 hr/ha
- Crop_yield [25]: 14.3 tons/ha
- Time [26]: 41.9 hr/ha
- Crop_yield [27]: 21.7 tons/ha
- Activity [28]: 45%
